Experimental data from patent US20080050354A1, “PROTECTING BIOACTIVE FOOD INGREDIENTS USING MICROORGANISMS HAVING REDUCED METABOLIZING CAPACITY” (COMPAGNIE GERVAIS DANONE, priority 2004, published 2008).
Entries after “also recorded” stand apart in the source; their conditions may differ. Like-named read-outs stand apart in the source and are kept apart here. Residues, ends and D or L forms follow the SMILES beside them.

How the values were obtained:
[1] = Storage of fermented product thermized at 75° C. for 1 minute; conditions: thermized 75° C., about 1 minute
Description: FIG. 5: Curves illustrating the change in the residual content of bioactive peptide αS1 [91-100], added after fermentation in a fermented product and then thermized at 75° C. for 1 minute, and stored at 10° C. up to the expiry date.
(FIG. 5), but at the expense of the overall quality of the finished product. Specifically, this solution has many drawbacks: • the thermization of a fermented dairy mass entails the use of stabilizers added before the heat treatment (pectins, starches, carrageenans, etc.), which complicates the process and substantially increases the cost of the formula; • the industrial manufacturing line is more complex and requires a larger specific investment; • the product no longer benefits from appellations associated with products containing live ferments (such as yogurt) and as a result loses the benefits associated with the consumption of lactic ferments; • the organoleptic impact (generally negative) is substantial.

Staphylococcus aureus [2] = conditions: sheep, IM injection; cited from earlier work
pathogenic strains [3] = conditions: in vitro; cited from earlier work
Staphylococcus aureus [4] = conditions: Mice, IM injection; cited from earlier work
small intestine motility = conditions: 10 g/300 ml water via intragastric probe; cancelled with naloxone; cited from earlier work
[5] = test system: mouse peritoneal macrophages; conditions: in vitro; cited from earlier work
[6] = cited from earlier work
pathogenic strains [7] = conditions: in vitro; cited from earlier work; remark: listed apart in the source
platelet aggregation = conditions: in vitro; cited from earlier work

In the case of “peptide αS1 [91-100]: fragment 91-100 of casein αS1; peptide with relaxing properties contained in the milk protein hydrolyzate Lactium® (Ingredia) (YLGYLEQLLR; UniProt P02662 106-115, looked up, fragment)”, the “stability of the peptide after heat treatment of the fermented product” value [1] is reported as “possible to ensure the stability; also recorded: possible to preserve”.
For `CC[C@H](C)[C@H](NC(=O)[C@@H]1CCCN1C(=O)[C@H](Cc1cnc[nH]1)NC(=O)[C@H](CCCCN)NC(=O)[C@@H]1CCCN1C(=O)[C@@H](N)CCCNC(=N)N)C(=O)N[C@@H](CCCCN)C(=O)N[C@@H](Cc1cnc[nH]1)C(=O)N[C@@H](CCC(N)=O)C(=O)NCC(=O)N[C@@H](CC(C)C)C(=O)N1CCC[C@H]1C(=O)N[C@@H](CCC(N)=O)C(=O)N[C@@H](CCC(=O)O)C(=O)N[C@H](C(=O)N[C@@H](CC(C)C)C(=O)N[C@@H](CC(N)=O)C(=O)N[C@@H](CCC(=O)O)C(=O)N[C@@H](CC(N)=O)C(=O)N[C@@H](CC(C)C)C(=O)N[C@@H](CC(C)C)C(=O)N[C@@H](CCCNC(=N)N)C(=O)N[C@@H](Cc1ccccc1)C(=O)O)C(C)C` [isracidin] (H-RPKHPIKHQGLPQEVLNENLLRF-OH), the “efficacy against Staphylococcus aureus” value (Staphylococcus aureus [2]) is listed as “Mice, sheep: effective in IM”, the “growth of pathogenic strains” value (pathogenic strains [3]) is listed as “Inhibition of growth” and the “efficacy against Staphylococcus aureus” value (Staphylococcus aureus [4]) is listed as “Mice, sheep: effective in IM”.
For Casein, the small intestine motility (small intestine motility) is given as “intragastric probe: inhibition”.
For “191-193 casein: Bovine β-casein fragment 191-193 (LLY; UniProt P02666 206-208, looked up, fragment)”, the “effect on mouse peritoneal macrophages” value [5] is given as “Stimulation of mouse” and the in vivo protection [6] is given as “No in vivo protection”.
For Lactoferricin, the “growth of pathogenic strains” value (pathogenic strains [7]) is listed as “Inhibition of growth”.
In the case of “Peptide 106-116 of bovine κ-casein: Peptide 106-116 of bovine κ-casein (MAIPPKKNQDK; UniProt P02668 127-137, looked up, fragment)”, the platelet aggregation (platelet aggregation) is listed as “Inhibition of”.
